“Also recorded” adds a separate entry of the source. Blank lines part the entries; values can stand above or below the molecule they belong to.
Key:
[1] = system: memory of previously learned tasks; details: in vivo; cited from earlier work
AII-2 receptor subtype = assay: Block of AII receptor subtypes, AII-2 (statement in words); format: binding
AII-1 receptor subtype = assay: Block of AII receptor subtypes, AII-1 (statement in words); format: binding
AII-1 receptor = assay: AII-1 site binding: displacement of [125I]AII in adrenal cortex microsomes in presence of 10^-5 M EXP655 (Table 1); design: species or system rat; details: 10^-5 M EXP655 present, [125I]AII displacement
AII-2 receptor = target: T1, AII-2 receptor (Rattus norvegicus, UniProt P35351); assay: biochemical
T1 sequence (P35351 1-363): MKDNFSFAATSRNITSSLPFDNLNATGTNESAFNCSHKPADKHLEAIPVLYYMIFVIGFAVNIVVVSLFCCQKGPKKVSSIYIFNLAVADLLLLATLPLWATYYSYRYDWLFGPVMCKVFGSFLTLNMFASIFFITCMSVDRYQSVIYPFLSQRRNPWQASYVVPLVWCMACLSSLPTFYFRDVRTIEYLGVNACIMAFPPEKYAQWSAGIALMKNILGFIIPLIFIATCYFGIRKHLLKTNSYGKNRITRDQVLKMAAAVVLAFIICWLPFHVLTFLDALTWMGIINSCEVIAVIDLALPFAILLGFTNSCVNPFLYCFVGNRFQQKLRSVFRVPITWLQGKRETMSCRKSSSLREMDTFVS
Description: IC50 was determined by displacement of [^125 I]AII from the receptor by the indicated compound.

[2] = system: passive avoidance response; details: injected into dorsal neostriatum; cited from earlier work
[3] = system: potassium-stimulated release of [3H]ACh; details: rat entorhinal cortex, cited from earlier work
[4] = system: renin-induced amnesia (passive avoidance); assay: Renin-disrupted passive avoidance retention; format: in vivo, male Sprague-Dawley rats; details: for effect on renin-induced amnesia: IVT, co-administered with renin
Description: RENIN-DISRUPTED PASSIVE AVOIDANCE RETENTION
Experimentally naive male Sprague-Dawley rats 100 to 125 days oil (Charles River Breeding Laboratories, Kingston, N.Y.), weighing between 175 to 200 gm were used. The animals were housed four per cage (45.0L×20.0H×26.0W cm) with free access to food and water. They were maintained on a 12 h light/dark cycle (lights on 0600 h) and at a room temperature of 22±1° C. with relative humidity of 50±10%.
The experimental sessions were conducted in a two-compartment passive avoidance box. One compartment, made of clear plastic with a perforated clear plastic floor, measured 21(L)×24.5(H)×17(W) cm and was illuminated with a 60 watt incandescent light bulb placed 36 cm above the floor. The other compartment, made of black plastic, measured 30.5 (L)×20.3 (H)×21.5 (W) cm with a floor made of 4 mm stainless steel rods spaced 1.2 cm apart. A grid floor shocker (Coulbourn Instruments) was connected to the steel rods and provided scrambled footshock. The two compartments were separated by a solenoid-operated slide door (Lafayette Instrument Co., Lafayette, Ind.). An electronic counter (Coulbourn Instruments), triggered by the opening or closing of the slide door, recorded acquisition and retention latencies (latencies were defined as the time it took an animal to enter the dark compartment).
Passive avoidance training began by placing the rat into the clear compartment of the two-compartment passive avoidance box. Following a 10 sec delay, the slide door to the dark compartment was raised. Once the rat moved completely into the dark compartment (all four paws on the shock grid floor) the slide door was lowered, and after a 10 sec. delay, a 1.0 mA shock was applied to the grid floor for three sec. A second three s shock was delivered after an additional 10 sec delay. The rats were immediately removed from the dark compartment and returned to their home cage. A retention test was given 24 h later. It proceeded in the same manner as the training session except that no shock was applied to the grid floor when the rats were provided access to the dark compartment for a maximum of 300 sec.
All drugs were administered IVT 60 minutes prior to acquisition training in a volume of 5 μl. Doses are expressed as the free base weight of each compound.

[5] = system: AII binding sites in the brain; assay: Binding of AII antagonists to sections of brain slices
light/dark habituation = details: cited from earlier work
avoidance learning = details: cited from earlier work
[6] = system: ACh in the striatum and hypothalamus; details: acute or repeated administration; cited from earlier work
[7] = system: scopolamine-induced impairment of eight arm radial maze performance; details: 3 mg/kg IP; cited from earlier work
uphill avoidance = details: acute, 30 mg/kg PO; cited from earlier work
[8] = system: scopolamine-induced amnesia; details: three times per day, 1, 3 and 10 mg/kg PO; cited from earlier work
[9] = system: AII in cerebrospinal fluid (CSF); details: cited from earlier work

Molecule: NCCCC[C@H](OP(=O)(O)CCCCc1ccccc1)C(=O)N1CCC[C@H]1C(=O)O [SQ 29852]
- anticholinergic effect on performance [1]: ameliorate, at least in part, an anticholinergic effect on performance
- effects on memory of previously learned tasks [1]: protective effects on memory of previously learned tasks

- IC50 (AII-1 receptor): 290 nM
- IC50 (AII-2 receptor): 4300 nM
Molecule: CCCc1nc(-c2ccccc2)c(C=O)n1Cc1ccc(-c2ccccc2C(=O)O)cc1 [Compound B, 1-[(2'-carboxybiphenyl-4-yl)methyl]-4-phenyl-2-propylimidazole-5-carboxaldehyde]
- AII-2 receptor block / affinity (AII-2 receptor subtype): show affinity for both AII-1 and AII-2 receptors
- AII-1 receptor block / affinity (AII-1 receptor subtype): show affinity for both AII-1 and AII-2 receptors

- IC50 (AII-1 receptor): 22 nM
- IC50 (AII-2 receptor): 2400 nM
Molecule: CCCc1nc(-c2ccccc2)c(C=O)n1Cc1ccc(-c2ccccc2-c2nnn[nH]2)cc1 [Compound A, 1-[(2'-(1H tetrazol-5-yl)biphenyl-4-yl)methyl]-4-phenyl-2-propylimidazole-5-carboxaldehyde]
- AII-2 receptor block / affinity (AII-2 receptor subtype): show affinity for both AII-1 and AII-2 receptors
- AII-1 receptor block / affinity (AII-1 receptor subtype): show affinity for both AII-1 and AII-2 receptors

Molecule: AII: Angiotensin II (AII), a circulating hormone, now thought to act as a neuropeptide in the central nervous system (DRVYIHPF; Angiotensin-2; UniProt P01019 25-32, looked up)
- retention of passive avoidance response [2]: showed a disruption in retention of a PA response
- basal ACh levels [3]: without effects on basal levels
- potassium-stimulated release of ACh [3]: reduced potassium-stimulated release of ACh
- IC50 (AII-1 receptor): 1.5 nM

- AII-1 receptor block / affinity (AII-1 receptor subtype): AII-1 receptor antagonists
Molecule: CCCc1nc(C(F)(F)F)c(CO)n1Cc1ccc(-c2ccccc2-c2nnn[nH]2)cc1 [Compound D, 2-n-propyl-5-hydroxymethyl-1-[(2'-(1H-tetrazol-5-yl)biphenyl-4-yl)methyl]-4-trifluoromethylimidazole]
- effect on renin-induced amnesia [4]: protected against the amnesia

Molecule: NC(=O)[C@@H]1CCCN1C(=O)[C@H](Cc1cnc[nH]1)NC(=O)[C@@H]1CCC(=O)N1 [thyrotropin releasing hormone]
- retention of passive avoidance response [2]: no effect

Molecule: lysine-8-vasopressin
- retention of passive avoidance response [2]: no effect

- IC50 (AII-1 receptor): 300000 nM
Molecule: Cc1cc(Cn2cnc3c2CC(C(=O)O)N(C(=O)C(c2ccccc2)c2ccccc2)C3)ccc1N (stereo not drawn) [EXP655, 1-(4-amino-3-methylphenyl)methyl-5-diphenylacetyl-4,5,6,7-tetrahydro-1H-imidazo[4,5-c]pyridine-6-carboxylic acid]
- sensitivity of AII binding sites in the brain [5]: the majority of binding sites in the brain are DTT-insensitive and EXP655-sensitive
- effect on renin-induced amnesia [4]: much less effective in preventing the amnesia

Molecule: C[C@H](CS)C(=O)N1CCC[C@H]1C(=O)O [captopril]
- scopolamine-induced disruption of light/dark habituation performance (light/dark habituation; daily treatment): prevented
- rate of acquisition of light/dark habituation performance (light/dark habituation; subchronic treatment): increased the rate of acquisition of light/dark habituation performance
- effect of captopril on renin-induced amnesia ([4]; IVT captopril, applicant's laboratory): renin-induced amnesia can be prevented
- renin-induced avoidance disruption (avoidance learning; captopril IVT prior to renin): prevented the renin-induced avoidance disruption

- IC50 (AII-1 receptor): 0.7 nM
- IC50 (AII-2 receptor): 0.3 nM
Molecule: CNCC(=O)N[C@@H](CCCN=C(N)N)C(=O)N[C@H](C(=O)N[C@@H](Cc1ccc(O)cc1)C(=O)N[C@H](C(=O)N[C@@H](Cc1cnc[nH]1)C(=O)N1CCC[C@H]1C(=O)N[C@@H](C)C(=O)O)C(C)C)C(C)C [Saralasin]

Molecule: [1-sarcosine, 8-threonine]angiotensin II
- antagonism of AII effect on ACh release ([3]; with AII): antagonized

- AII-1 receptor block / affinity (AII-1 receptor subtype): AII-1 receptor antagonists
Molecule: CCCc1nc(C(F)(F)F)c(C(=O)O)n1Cc1ccc(-c2ccccc2-c2nnn[nH]2)cc1 [Compound C, 2-n-propyl-1-[(2'-(1H -tetrazol-5-yl)biphenyl-4-yl)methyl]-4-trifluoromethylimidazole-5-carboxylic acid]
- effect on renin-induced amnesia [4]: protected against the amnesia

Molecule: CCOC(=O)C(CCc1ccccc1)NC(C)C(=O)N1CC2(CC3CCC2CC3)CC1C(=O)O (stereo not drawn) [Hoe 288]
- ACh in the striatum and hypothalamus [6]: significant decrease in ACh in the striatum and hypothalamus
- effects of muscarinic receptor blockade on radial maze performance [7]: partially antagonized the effects of muscarinic receptor blockade
- uphill avoidance performance during retention testing (uphill avoidance): improved performance during retention testing
- scopolamine-induced PA amnesia [8]: partially reversed the amnesia

B1: renin: Renin (Sigma Chemicals), a stimulator of endogenous AII biosynthesis (protein, UniProt P00797 67-406, looked up)
Renin: LTLGNTTSSVILTNYMDTQYYGEIGIGTPPQTFKVVFDTGSSNVWVPSSKCSRLYTACVYHKLFDASDSSSYKHNGTELTLRYSTGTVSGFLSQDIITVGGITVTQMFGEVTEMPALPFMLAEFDGVVGMGFIEQAIGRVTPIFDNIISQGVLKEDVFSFYYNRDSENSQSLGGQIVLGGSDPQHYEGNFHYINLIKTGVWQIQMKGVSVGSSTLLCEDGCLALVDTGASYISGSTSSIEKLMEALGAKKRLFDYVVKCNEGPTLPDISFHLGGKEYTLTSADYVFQESYSSKKLCTLAIHAMDIPPPTGPTWALGATFIRKFYTEFDRRNNRIGFALAR
- AII in CSF after renin ([9]; renin IVT): about 5,000 fmol per mL
- AII in CSF before renin ([9]; starting level): 40 fmol per mL
- memory effect of renin ([4]; renin IVT): produces a reliable memory deficit; also recorded: produces a dose-related amnesia in a PA task
- Median Retention Latency ([4]; renin alone 5.0 μg/5 μL IVT): 17 s
- avoidance learning (avoidance learning; renin IVT): disruption of avoidance learning

Reference: patent US5140037A, “Treatment of central nervous system disorders with imidazole angiotensin-II receptor antagonists” (E. I. du Pont de Nemours and Company, priority 1990, dated 1992)
